Data reported in patent publication US20020165221A1, “Mediators of hedgehog signaling pathways, compositions and uses related thereto” (priority 2000, published 2002).
pIC50: −log10 of the molar value.

What was measured:
[1] = tested on: Patched pathway (ptc-lacZ reporter, Shh-induced BCC-like structures); assay: Embryonic mouse skin punch assay: prolonged exposure to D; format: cell-based; settings: Shh-treated skin punches, 6 days
Description: A novel cell culture assay was established to determine the effects of D on activation of the Patched pathway in skin. In this system, activation of the Patched pathway results in increased expression of the ptc gene.
To monitor the activity of the Patched pathway in embryonic skin, we cultured pieces of skin from transgenic Patched pathway reporter mice. These mice were genetically engineered to harbor a foreign gene (lacZ). The lacZ gene encodes a bacterial beta-galactosidase. The gene was inserted in the ptc locus but allowed for normal ptc function. Ptc activation in response to Shh-induced Patched pathway activation can then be monitored by the production of the lacZ gene product, beta-galactosidase, which is detectable by the enzymatic conversion of the substrate X-gal into a blue-colored reaction product.
Day 17.5 embryonic skin was explanted as 2 mm circular punches from these transgenic reporter mice and cultured for 5 to 7 days in the presence of Shh protein (FIG. 34). […] To test the effect of D, skin punches were cultured for 6 days in the presence of both Shh protein and D (FIG. 35).

[2] = tested on: Patched pathway (ptc-lacZ reporter); assay: Embryonic mouse skin punch assay: short-term pretreatment with D; format: cell-based; settings: pretreated with D at 10, 20 and 50 μM for 5 hours, then Shh 6 days
Experimental: Transgenic mouse-derived skin punches were treated with vehicle or D for 5 hours in the absence of Shh. After the pretreatment, the vehicle or D was removed. The skin punches were washed twice and then cultured in the presence of Shh for 6 days. At the end of the experiment, the skin punches were fixed and stained with X-gal to determine Patched pathway activity.

[3] = tested on: Patched pathway (X-gal, gli-1 mRNA, BCC-like structures); assay: Embryonic mouse skin punch assay: short-term treatment of pre-existing BCC-like structures; format: cell-based
Experimental: Day 17.5 embryonic skin punches from transgenic Patched pathway reporter mice were cultured in the presence of Shh protein for 7 days. The Shh protein was removed at the end of the 7 days. The skin punches were then exposed to vehicle or 1 or 5 μM D for 5 hours on days 7 and 9. After each exposure to vehicle or D, the vehicle or D was washed off and the skin punches were cultured again in the presence of Shh protein. Cultures were analyzed by X-gal staining after 10 days in vitro to assess the activity of the Patched pathway.

[4] = tested on: Patched pathway / ultraviolet radiation-induced BCC tumors; assay: Adult BCC mouse skin punch assay (UV-irradiated Ptc heterozygous transgenic mice); format: cell-based
Experimental: Ptc heterozygous transgenic mice were irradiated 3 times weekly for 6 months, during which time many small, and often microscopic, BCC tumors developed. Four-mm diameter skin punch explants, presumably containing BCC structures, were cultured for 6 days in the presence of vehicle, the positive control […]), or 5 μM D. At the end of the experiment, the explants were analyzed by X-gal staining to detect the level of Patched pathway activity, by histology to determine the effect of treatment on the morphology of ultraviolet radiation-induced BCCs, and by quantifying the level of gli-1 mRNA expression to characterize the extent of pathway inhibition.

[5] = tested on: GLI-1 expression in human BCC; assay: Human BCC explant culture, quantitative in situ hybridization; format: cell-based; settings: 10 μM D, 3 days, vs vehicle
Experimental: Specimens obtained from surgical procedures (such as Mohs surgery or curettage) were cultured on fresh, living, day 17 embryonic mouse dermis from which all epidermal cells have been removed by digestion using dispase. Since dispase treatment digests basement membrane components, Matrigel, a commercially available basement membrane preparation, was applied between the dermis and BCC. Cultures were assembled on top of a plastic grid and incubated for 3 days (with or without D at a concentration of 10 μM) in a medium suitable for the long-term culture of human skin. After culture, the samples were processed for routine histology and subjected to quantitative in situ hybridization. Briefly, 7μm sections of paraformaldehyde-fixed, paraffin-embedded tissue containing large basal cell islands were cleared, re-hydrated, digested with proteinase K, acetylated and hybridized with [^33P]- labeled RNA probes overnight. After high stringency post-hybridization washes, slides were exposed to a PhosphorImager screen in the dark at room temperature for 4-7 days. After developing, the [^33P]-signal was scanned using a Storm Scanner (Molecular Dynamics). Individual basal cell islands were selected and the signal quantified and expressed in average counts/pixel using ImageQuant 1.0 software.

Hedgehog pathway = assay: Gli-Luc assay (Hedgehog-responsive Luciferase reporter), 10T1/2(s12) cells with OCT-SHH; format: cell-based; settings: OCT-SHH 0.3 μg/ml
Experimental: Compounds to be tested are dissolved in DMSO to a concentration of 10 MM, and stored at −20° C. To activate the Hedgehog pathway in the assay cells, an octylated (lipid-modified) form of the N-terminal fragment of the Sonic Hedgehog protein (OCT-SHH) is used. This N-terminal SHH fragment is produced bacterially.
Compounds may be tested in the “Gli-Luc” assay below, using the cell line 10T(s12), wherein the cells contain a Hedgehog-responsive reporter construct utilizing Luciferase as the reporter gene. In this way, Hedgehog pathway signaling activity can be measured via the Gli-Luc response.
10t1/2(s12) cells are plated in a 96-well micro-titer plate (MTP) at 20,000 cells/well in full medium [DMEM with 10% FBS]. Then plates are placed in the incubator for incubation overnight (O/N), at 37° C. and 5% CO2. After 24 h, the medium is replaced with Luciferase-assay medium (DMEM with 0.5% FBS). Compounds are thawed and diluted in assay medium at 3:1000 (about 300-fold) resulting in a starting concentration of about 30 μM.
Subsequently, 150 μl of each 30 μM sample is added to the first wells (in triplicate). The MTP samples are then diluted at 3-fold dilutions to a total of seven wells, ultimately resulting in a regiment of seven dilutions in triplicate, for each compound. Next, the protein ligand OCT-SHH is diluted in Luciferase-assay medium and added to each well at a final concentration of 0.3 μg/ml. Plates are then returned to the incubator for further incubation O/N, at 37° C. and 5% CO2. After about 24 h, plates are removed from the incubator and the medium is aspirated/discarded. Wells are washed once with assay buffer [PBS +1 mM Mg^2+and 1 mM Ca^2+]. Then 50 μl of assay buffer is added to each well. The Luciferase assay reagent is prepared as described by the vendor (LucLite kit from Packard), and 50 μl is added to each well. Plates are incubated at room temperature (RT) for about 30 minutes after which the signals are read, again at RT, on a Topcount (Packard).

[6] = tested on: Shh-induced BCC-like structures; assay: Embryonic mouse skin punch assay: long-term treatment of pre-existing BCC-like structures; format: cell-based
Experimental: Day 17.5 embryonic skin punches from transgenic Patched pathway reporter mice were cultured in the presence of Shh protein for 7 days to allow for the development of BCC-like structures. The Shh protein was removed at the end of the 7 days. The cultures were then exposed to Shh protein plus either vehicle or D for 3 days. The cultures were analyzed histologically after 10 days to assess the formation of BCC-like structures that are indicative of activation of the Patched pathway.
One possible mechanism for D-induced regression of BCC-like structures may be apoptosis of the activated cells. To investigate this possibility, parallel explants were exposed to 5 μM D for 2 days and were then stained by the terminal deoxynucleotidyltransferase mediated d-UTP nick end-labeling (TUNEL) method, which is used to detect apoptotic nuclei.

[7] = tested on: Ptc-null cells (gli-1 mRNA, Patched pathway); assay: Ptc-null assay: gli-1 mRNA by RT-PCR and quantitative real-time PCR; format: cell-based, mouse; settings: 3 days, 1 μM D
Experimental: Ptc-null cells were cultured for 3 days in the presence of vehicle; jervine, a known Patched pathway antagonist (i) used here as a positive control; or 1 μM of compound D. Total ribonucleic acid (RNA) was isolated from the cells and used for reverse transcriptase-polymerase chain reaction (RT-PCR). […] The gli-1 and actin mRNA samples were then loaded on 1.5% agarose gel and were detected by staining with ethidium bromide. The same samples were analyzed by the quantitative real-time polymerase chain reaction method to quantify the levels of gli-1 MRNA.

[8] = short-term treatment, 5 hours on days 7 and 9

COc1cccc(CN(C(=O)CC(C)(C)C)C2CC(C(=O)N3CCNCC3)N(Cc3ccc4c(c3)OCO4)C2)c1 (centres unmarked) [Compound D]
X-gal staining ([1]; 0.2 μM D, vs Shh alone): decreased
Patched pathway activity (lacZ reporter enzyme activity) ([1]; 0.01 to 1 μM D): dose-dependent decrease
formation of BCC-like structures ([1]; histology): completely blocked
integrity of normal skin cells ([1]; histology): without affecting the integrity of normal skin cells
inhibition of Shh protein-induced upregulation of the Patched pathway (X-gal staining) [2]: complete inhibition
regression of existing Shh-induced BCC-like structures ([3]; 1 and 5 μM D for 5 hours on days 7 and 9): caused the regression
amount of X-gal staining ([3]; 1 or 5 μM D for 5 hours on days 7 and 9): reduced
GAPDH mRNA levels (general cytotoxicity) [3, 8]: relatively constant
gli-1 transcription (gli-1 mRNA levels) [3, 8]: completely downregulated
number and size of established BCC structures (X-gal staining) ([4]; 5 μM D, 6 days, vs vehicle): decreased
level of gli-1 mRNA ([4]; D 1 and 5 μM, vs vehicle): significantly inhibited
regression of ultraviolet radiation-induced BCC tumors (histology) ([4]; D, 6 days, vs vehicle): induced the regression
levels of housekeeping GAPDH (non-specific cytotoxicity) ([4]; treated vs vehicle): no significant difference
level of GLI-1 expression (quantitative in situ hybridization) [5]: greatly reduced
pIC50 (Hedgehog pathway): > 6.00
number of apoptotic nuclei within BCC-like structures (TUNEL) ([6]; 5 μM D, 2 days, vs vehicle): significantly higher
general cytotoxic effects on skin cells (histology) ([6]; D 1 or 5 μM, 3 days): did not appear to have general cytotoxic effects
size and number of Shh-induced BCC-like structures ([6]; pre-existing structures, D 1 or 5 μM, 3 days, vs vehicle): significantly reduced
gli-1 mRNA levels (quantitative real-time PCR) [7]: downregulated
expression of gli-1 mRNA (RT-PCR, agarose gel) ([7]; vs vehicle): significantly decreased
